In US8017767B2, “Sucralose composition” (Tate & Lyle Public Limited Company, priority 2000, dated 2011):

Assay: Accelerated stability test (50° C.) with pH stability test of sucralose sample solution
Assay type: physicochemical
From the text: Label seven 6 oz. and seven 18 oz. WHIRLPAK® polyethylene bags with indelible marker for each batch being tested for stability. Accurately weigh 25 g±0.01 g of sucralose into each 6 oz. WHIRLPAK® polyethylene bag. Heat or impulse seal the 6 oz. bag to ensure air tightness. Cut off any excess polyethylene at the top of the bag above the seal. Place the 6 oz. sealed bag into the 18 oz. bag and heat or impulse seal the 18 oz. bag to ensure air tightness. Roll down the top of the 18 oz. bag above the seal and bend the metal ties to form hooks.
Place the prepared bags into an oven stabilized at 50° C.±0.5° C. by hanging them from racks by the bag hooks. The bags must be freely suspended and not touch anything. Record the time samples are placed into the oven.
The pH stability test is conducted on the sucralose at time zero (the day the samples are placed in the oven, before the sucralose is exposed to elevated temperature) and every 24 hours until the batch being tested fails the test.
Place approximately 100 ml of deionized water into a 150 ml beaker. Using 0.1 N hydrochloric acid and/or 0.1 N sodium hydroxide, adjust the pH of the water to be between 5.8 and 6.0. Record the pH reading.
Accurately weigh 5 g±0.001 g of the product to be tested and transfer it to a 50 ml volumetric flask. Dissolve and bring to the mark by adding pH-adjusted water. If the sample to be tested is one that has been exposed to heat, remove one bag of the batch being tested from the oven and allow it to cool to room temperature before opening and sampling.
Pour the solution into a 100 ml beaker containing a stir bar, and slowly stir the solution on a magnetic stirrer. Immerse the pH electrode in the sample, allow the pH reading to stabilize, and record the pH reading of the sample. If no pH drop is observed after all the bags have been tested, the experiment is void and the test must repeated with a larger number of bags.
Record (to one decimal place) the pH of both the pH-adjusted water used and the sample sucralose solution. Subtract the pH of the […]. Report the result as (−) for a pH drop and (+) for a pH gain, e.g.:
The sample fails the test if there is a pH drop of 1.0 pH unit or more. The pH stability of the batch is defined as the number of days until the pH drop between the sample solution and that of the pH adjusted water is ≧1.0.
Samples of sucralose were tested for stability using the above procedures, but using bags of different moisture permeability. All other experimental details were the same. The TYVEK®/polyethylene bags are permeable; the WHIRLPAK® bags are less permeable. The A8080 bag consists of aluminum foil laminated to low-density polyethylene, which makes it very impermeable to moisture.

Days to pH Failure (50° C., WHIRLPAK polyethylene bags, failure = pH drop ≧1.0, Example 2, pH at crystallizer varied): 6 Days
Days to pH Failure (Final Product Moisture Content) (50° C., final dried product, Example 3): 6 Days
Days to pH Failure (Initial Moisture Content) (50° C., partially dried product at intermediate (initial) moisture content, Example 3): 23 Days
Initial pH difference (sample solution vs pH-adjusted water at time zero, Example 2, pH at crystallizer varied): +0.17
Compound: OC[C@H]1O[C@H](O[C@]2(CCl)O[C@H](CCl)[C@@H](O)[C@@H]2O)[C@H](O)[C@@H](O)[C@H]1Cl [Sample 38, 4,1′,6′-trichloro-4,1′,6′-trideoxy-galactosucrose]
